We go through 24 compounds from patent US9062048B2, “Cyclohexyl-azetidinyl antagonists of CCR2” (Janssen Pharmaceutica NV, priority 2010, dated 2015).

The target of this test is CCR2 (Homo sapiens (Human), UniProt P41597). In words: MCP-1 Receptor Binding Assay in THP-1 Cells.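 Further: THP-1 is a human monocytic cell line, and nonspecific binding was defined with 1 µM unlabeled MCP-1.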 Particulars: 0.5 nM 125I labeled MCP-1, 2 hours at 30° C., read-out: Inhibition of MCP-1 Binding IC50 MCP1B.
Sequence of CCR2 (P41597 whole entry): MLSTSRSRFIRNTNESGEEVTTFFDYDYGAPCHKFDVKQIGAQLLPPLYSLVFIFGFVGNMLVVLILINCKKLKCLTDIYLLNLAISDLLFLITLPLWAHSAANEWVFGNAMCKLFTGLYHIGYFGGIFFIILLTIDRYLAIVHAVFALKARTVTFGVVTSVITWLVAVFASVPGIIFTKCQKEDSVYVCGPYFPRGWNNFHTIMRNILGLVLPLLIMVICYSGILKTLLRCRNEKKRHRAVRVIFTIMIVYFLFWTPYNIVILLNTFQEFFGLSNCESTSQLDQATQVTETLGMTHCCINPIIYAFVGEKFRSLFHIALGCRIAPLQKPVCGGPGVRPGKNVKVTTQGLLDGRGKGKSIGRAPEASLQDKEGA

For `CC[C@@H](O)[C@H]1CC[C@@H](N2CC(NC(=O)CNc3nccc4ncc(C(F)(F)F)cc34)C2)CC1` (stereo in doubt) [Example 150, N-(1-((1R,4s)-4-((S)-1-hydroxypropyl)cyclohexyl)azetidin-3-yl)-2-((3-(trifluoromethyl)-1,6-naphthyridin-5-yl)amino)acetamide], the IC50 was 430 nM.
The same measure for `O=C(CNc1ncnc2ccc(C(F)(F)F)cc12)NC1CN([C@H]2CC[C@@H](N3CCC(F)(F)C3)CC2)C1` [Example 131, N-(1-((1s,4s)-4-(3,3-difluoropyrrolidin-1-yl)cyclohexyl)azetidin-3-yl)-2-((6-(trifluoromethyl)quinazolin-4-yl)amino)acetamide]: 300 nM.
For `C=CCC(O)(CC=C)[C@H]1CC[C@@H](N2CC(NC(=O)CNc3ncnc4ccc(C(F)(F)F)cc34)C2)CC1` [Example 31, N-(1-((1s,4s)-4-(4-hydroxyhepta-1,6-dien-4-yl)cyclohexyl)azetidin-3-yl)-2-((6-(trifluoromethyl)quinazolin-4-yl)amino)acetamide], the IC50 was found to be 300 nM.
The value for `NC[C@H]1CC[C@@H](N2CC(NC(=O)CNc3ncnc4ccc(C(F)(F)F)cc34)C2)CC1` [Example 116, N-(1-((1s,4s)-4-(aminomethyl)cyclohexyl)azetidin-3-yl)-2-((6-(trifluoromethyl)quinazolin-4-yl)amino)acetamide] was 240 nM.
Turning to `O=C(CNc1ncnc2ccc(C(F)(F)F)cc12)NC1CN([C@H]2CC[C@@H]([C@@H](O)C3CC3)CC2)C1` [(+) 4, N-(1-((1S,4s)-4-(cyclopropyl(hydroxy)methyl)cyclohexyl)azetidin-3-yl)-2-((6-(trifluoromethyl)quinazolin-4-yl)amino)acetamide], the IC50 is 24 nM.
The same measure for `CC[C@H](O)[C@H]1CC[C@H](N2CC(NC(=O)CNc3nccc4ncc(C(F)(F)F)cc34)C2)CC1` [Example 151]: greater than 25000 nM; for `O=C(CNc1ncnc2ccc(C(F)(F)F)cc12)NC1CN([C@H]2CC[C@@H](C(O)C(F)(F)F)CC2)C1` (stereo partly drawn) [Example 34, N-(1-((1R,4s)-4-(2,2,2-trifluoro-1-hydroxyethyl)cyclohexyl)azetidin-3-yl)-2-((6-(trifluoromethyl)quinazolin-4-yl)amino)acetamide]: 73 nM.
Regarding `CN(C)C(=O)OC[C@H]1CC[C@@H](N2CC(NC(=O)CNc3ncnc4ccc(C(F)(F)F)cc34)C2)CC1` [Example 124, ((1s,4s)-4-(3-(2-((6-(trifluoromethyl)quinazolin-4-yl)amino)acetamido)azetidin-1-yl)cyclohexyl)methyl dimethylcarbamate], the 50% inhibitory concentration (IC50) was 210 nM.
The same measure for `O=C(CNc1ncnc2ccc(C(F)(F)F)cc12)NC1CN([C@H]2CC[C@@H](n3ccccc3=O)CC2)C1` [Example 55, N-(1-((1s,4s)-4-(2-oxopyridin-1-(2H)-yl)cyclohexyl)azetidin-3-yl)-2-((6-(trifluoromethyl)quinazolin-4-yl)amino)acetamide]: 15 nM.
Turning to `CC[C@@H](O)[C@H]1CC[C@@H](N2CC(NC(=O)CNc3nncc4ccc(C(F)(F)F)cc34)C2)CC1` (stereo in doubt) [Example 153, N-(1-((1R,4s)-4-((S)-1-hydroxypropyl)cyclohexyl)azetidin-3-yl)-2-((7-(trifluoromethyl)phthalazin-1-yl)amino)acetamide], the IC50 was determined as 15 nM.
The same measure for `O=C(CNc1ncnc2ccc(C(F)(F)F)cc12)NC1CN(C2CCC(c3ncccc3O)CC2)C1` (stereo not drawn) [Example 1, N-(1-(4-(3-hydroxypyridin-2-yl)cyclohexyl)azetidin-3-yl)-2-((6-(trifluoromethyl)quinazolin-4-yl)amino)acetamide]: 4 nM.
In the case of `CC(C)(C)C(O)[C@H]1CC[C@@H](N2CC(NC(=O)CNc3ncnc4ccc(C(F)(F)F)cc34)C2)CC1` (stereo partly drawn) [Example 98, N-(1-((1R,4s)-4-(1-hydroxy-2,2-dimethylpropyl)cyclohexyl)azetidin-3-yl)-2-((6-(trifluoromethyl)quinazolin-4-yl)amino)acetamide], the IC50 was found to be 753 nM.
As for `CC(C)C(O)[C@H]1CC[C@@H](N2CC(NC(=O)CNc3nccc4ccc(C(F)(F)F)cc34)C2)CC1` (stereo partly drawn) [Example 169], the IC50 stood at 35 nM.
Take `O=C(CNc1ncnc2ccc(C(F)(F)F)cc12)NC1CN([C@H]2CC[C@@H](N3CCSCC3)CC2)C1` [Example 133, N-(1-((1s,4s)-4-thiomorpholinocyclohexyl)azetidin-3-yl)-2-((6-(trifluoromethyl)quinazolin-4-yl)amino)acetamide]: the IC50 was found to be 200 nM.
The value for `CC(=O)N(C)[C@H]1CC[C@@H](N2CC(NC(=O)CNc3ncnc4ccc(C(F)(F)F)cc34)C2)CC1` [Example 44] was 520 nM; that for `CCCC(=O)N(C)[C@H]1CC[C@@H](N2CC(NC(=O)CNc3ncnc4ccc(C(F)(F)F)cc34)C2)CC1` [Example 46, N-methyl-N-((1s,4s)-4-(3-(2-((6-(trifluoromethyl)quinazolin-4-yl)amino)acetamido)azetidin-1-yl)cyclohexyl)butyramide] was 810 nM.
The same measure for `CC(C)(C)OC(=O)NC1CCC(N2CC(NC(=O)CNc3ncnc4ccc(C(F)(F)F)cc34)C2)CC1` (stereo not drawn) [Example 125, tert-butyl (4-(3-(2-((6-(trifluoromethyl)quinazolin-4-yl)amino)acetamido)azetidin-1-yl)cyclohexyl)carbamate]: 220 nM; for `CC[C@@H](O)[C@H]1CC[C@H](N2CC(NC(=O)CNc3nncc4ccc(C(F)(F)F)cc34)C2)CC1` [Example 154, N-(1-((1R,4r)-4-((R)-1-hydroxypropyl)cyclohexyl)azetidin-3-yl)-2-((7-(trifluoromethyl)phthalazin-1-yl)amino)acetamide]: 6080 nM.
As for `O=C(CNc1ncnc2ccc(C(F)(F)F)cc12)NC1CN([C@H]2CC[C@@H](O)CC2)C1` [Example 110, N-(1-((1s,4s)-4-hydroxycyclohexyl)azetidin-3-yl)-2-((6-(trifluoromethyl)quinazolin-4-yl)amino)acetamide], the IC50 amounted to 68 nM.
`CCOC(=O)CC1CCC(N2CC(NC(=O)CNc3ncnc4ccc(C(F)(F)F)cc34)C2)CC1` (stereo not drawn) [Example 122]: the IC50 stood at 120 nM.
The value for `CN(CC(=O)NC1CN([C@H]2CC[C@@](O)(c3nccs3)CC2)C1)c1ncnc2ccc(C(F)(F)F)cc12` [Example 64, N-(1-((1r,4r)-4-hydroxy-4-(thiazol-2-yl)cyclohexyl)azetidin-3-yl)-2-(methyl(6-(trifluoromethyl)quinazolin-4-yl)amino)acetamide] was 830 nM; that for `[2H][C@]1(N2CC(NC(=O)CNc3ncnc4ccc(C(F)(F)F)cc34)C2)CC[C@@H](C(C)C)CC1` [Example 118, N-(1-deutero-1-((1s,4s)-4-isopropylcyclohexyl)azetidin-3-yl)-2-((6-(trifluoromethyl)quinazolin-4-yl)amino)acetamide] was 85 nM; that for `CC(C)[C@H]1CC[C@@H](N2CC(NC(=O)CNc3ncnc4ccc(C(F)(F)F)cc34)C2)CC1` [Example 117, N-(1-((1s,4s)-4-isopropylcyclohexyl)azetidin-3-yl)-2-((6-(trifluoromethyl)quinazolin-4-yl)amino)acetamide] was 100 nM.
In the case of `O=C(CNc1ncnc2ccc(C(F)(F)F)cc12)NC1CN([C@H]2CC[C@@H](C3CC=CCO3)CC2)C1` (stereo partly drawn) [Example 2, N-(1-((1S,4s)-4-(−3,6-dihydro-2H-pyran-2-yl)cyclohexyl)azetidin-3-yl)-2-((6-(trifluoromethyl)quinazolin-4-yl)amino)acetamide and N-(1-((1S,4r)-4-(3,6-dihydro-2H-pyran-2-yl)cyclohexyl)azetidin-3-yl)-2((6-(trifluoromethyl)quinazolin-4-yl)amino)acetamide], the IC50 stood at 5 nM.
